Measured values as given in patent US10093713B2, “GIP-GLP-1 dual agonist compounds and methods” (priority 2013, dated 2018).
Read-outs that look alike come from different tables or passages of the source. *1 amine or outer side, *2 acyl side, *3 side chain or, on linkers, in order; H or OH if unused. Where a SMILES comes first, the peptide text is derived from it. Side-chain parts run from the residue outwards. [ ]: non-standard residue; d: D form. The star is where a group is joined. C20 diacid = O=C(O)CCCCCCCCCCCCCCCCCCC(=O)*; C18 diacid = O=C(O)CCCCCCCCCCCCCCCCC(=O)*; γGlu = O=C(O)[C@H](CCC(=O)[*:2])N[*:1]; AEEA = NCCOCCOCC(=O)O; Aib = CC(C)(N)C(=O)O

Assays:
[1] = Pharmacokinetics of selected compounds in mice; format: in vivo, C57BL/6J mice; settings: mouse, plasma; for bioavailability: subcutaneous, AUCinf (s.c.)/AUCinf (i.v.)x100, values marked * capped to 100%
Method: Pharmacokinetics of Selected Compounds in Mice
C57BL/6J mice (males with a body weight of approximately 25 g) were given either a single subcutaneous (s.c.) bolus or a single intravenous (i.v.) bolus of each peptide to be tested.
Following s.c. administration of the selected compounds (50, 100 or 200 nmol/kg), blood samples were drawn at 8 (eight) timepoints up to 72 hours post-dose. Following i.v. administration of the selected compounds (50, 100 or 200 nmol/kg), blood samples were drawn at 8 (eight) timepoints up to 48 hours post-dose. Blood samples were drawn by sublingual bleeding. The dosing vehicle was a phosphate buffer containing mannitol (pH 7.5).
At each sampling time point, samples from two mice were drawn, i.e. 16 mice were included for each compound and each administration route. The mice were euthanized immediately after blood sampling by cervical dislocation. Plasma samples were analyzed after solid phase extraction (SPE) or protein precipitation followed by liquid chromatography mass spectrometry (LC-MS/MS). Mean plasma concentrations were used for calculation of the pharmacokinetic parameters using the non-compartmental approach in Phoenix WinNonlin 6.3. Plasma terminal elimination half-life (T½) was determined as […] where λz is the magnitude of the slope of the log linear regression of the log concentration versus time profile during the terminal phase. Bioavailability was determined as AUCinf (s.c.)/AUCinf (i.v.)×100, where AUCinf is the area under the plasma concentration−time curve extrapolated to infinity (AUCinf=AUClast+Clast/λz, where Clast is the last observed plasma concentration). Tmax is the post-dose time where the maximal plasma concentration was observed.

human GLP-1 R = biological target: T1, human GLP-1 R (Homo sapiens, UniProt P43220); test: Human GLP-1 receptor (GLP-1 R) activity assay, cAMP induction (AlphaScreen) in HEK293 cells; format: cell-based
T1 construct: expressed in transfected cells
Summary of the method: (§1)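 Stable HEK293 clones expressing human GIP R or GLP-1 R, seeded 1 day before; cells washed in Tyrode's buffer (10 mM HEPES, pH 7.4), stimulated, then lysed. cAMP measured by AlphaScreen bead competition (1 h, room temperature, dark). EC50 = concentration giving half-maximal cAMP elevation, from curves of absolute cAMP (nM) vs log concentration.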

human GIP R = biological target: T2, human GIP R (Homo sapiens, UniProt P48546); test: Human GIP receptor (GIP R) activity assay, cAMP induction (AlphaScreen) in HEK293 cells; format: cell-based; settings: read-out: hGIP-R cAMP EC50 average value
T2 construct: expressed in transfected cells
T2 sequence (P48546 22-466): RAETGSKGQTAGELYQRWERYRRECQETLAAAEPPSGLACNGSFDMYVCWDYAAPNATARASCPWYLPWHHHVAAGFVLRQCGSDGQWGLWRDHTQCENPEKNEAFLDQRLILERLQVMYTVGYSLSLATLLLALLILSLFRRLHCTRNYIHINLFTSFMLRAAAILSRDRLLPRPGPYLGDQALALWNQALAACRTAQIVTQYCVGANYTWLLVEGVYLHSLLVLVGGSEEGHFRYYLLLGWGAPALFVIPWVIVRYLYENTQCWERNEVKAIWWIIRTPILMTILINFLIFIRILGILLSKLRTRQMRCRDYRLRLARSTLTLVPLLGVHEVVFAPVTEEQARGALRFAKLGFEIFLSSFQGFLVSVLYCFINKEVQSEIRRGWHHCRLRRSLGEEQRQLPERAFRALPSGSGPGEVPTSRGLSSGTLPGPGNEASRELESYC
Summary of the method: as §1

[2] = Table 2, HEK293 cells expressing human GLP-1 R, read-out: hGLP1-R cAMP EC50 average value
[3] = Table 2, HEK293 cells expressing human GIP R
[4] = Table 2a, secondary assay study
[5] = Table 3, most comprehensive data
[6] = male, C57BL/6J, iv, single i.v. bolus, read-out: T½ terminal elimination half-life, i.v. (converted)
[7] = male, C57BL/6J, sc, single s.c. bolus
[8] = Table 3, most comprehensive data, read-out: hGLP-1-R cAMP EC50 average value

T1 sequence (P43220 24-463): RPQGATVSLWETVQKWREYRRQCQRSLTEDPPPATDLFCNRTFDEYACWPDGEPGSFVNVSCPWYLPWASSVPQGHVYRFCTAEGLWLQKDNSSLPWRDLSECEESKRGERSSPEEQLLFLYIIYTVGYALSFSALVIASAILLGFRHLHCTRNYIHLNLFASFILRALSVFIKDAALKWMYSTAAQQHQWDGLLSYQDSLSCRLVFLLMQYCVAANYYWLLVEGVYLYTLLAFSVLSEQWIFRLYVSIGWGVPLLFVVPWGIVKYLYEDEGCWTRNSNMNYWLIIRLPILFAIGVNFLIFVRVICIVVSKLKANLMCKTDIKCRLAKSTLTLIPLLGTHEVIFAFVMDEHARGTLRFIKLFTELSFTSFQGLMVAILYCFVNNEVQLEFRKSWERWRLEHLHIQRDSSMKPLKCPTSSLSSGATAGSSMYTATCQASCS

SMILES: CC[C@H](C)[C@H](NC(=O)[C@H](CO)NC(=O)[C@H](Cc1ccc(O)cc1)NC(=O)[C@H](CC(=O)O)NC(=O)[C@H](CO)NC(=O)[C@@H](NC(=O)[C@H](Cc1ccccc1)NC(=O)[C@@H](NC(=O)CNC(=O)[C@H](CCC(=O)O)NC(=O)C(C)(C)NC(=O)[C@@H](N)Cc1ccc(O)cc1)[C@@H](C)O)[C@@H](C)O)C(=O)N[C@@H](Cc1ccc(O)cc1)C(=O)N[C@@H](CC(C)C)C(=O)N[C@@H](CC(=O)O)C(=O)N[C@@H](CCCCN)C(=O)N[C@@H](CCCCNC(=O)CNC(=O)CNC(=O)[C@H](CO)NC(=O)CNC(=O)[C@H](CO)NC(=O)CNC(=O)CC[C@H](NC(=O)CCCCCCCCCCCCCCCCC(=O)O)C(=O)O)C(=O)N[C@@H](C)C(=O)N[C@@H](CCC(N)=O)C(=O)N[C@@H](CCCNC(=N)N)C(=O)N[C@@H](C)C(=O)N[C@@H](Cc1ccccc1)C(=O)N[C@H](C(=O)N[C@@H](CCC(=O)O)C(=O)N[C@@H](Cc1c[nH]c2ccccc12)C(=O)N[C@@H](CC(C)C)C(=O)N[C@@H](CC(C)C)C(=O)N[C@@H](C)C(=O)N[C@@H](CCC(N)=O)C(=O)NCC(=O)N1CCC[C@H]1C(=O)N[C@@H](CO)C(=O)N[C@@H](CO)C(=O)NCC(=O)N[C@@H](C)C(=O)N1CCC[C@H]1C(=O)N1CCC[C@H]1C(=O)N1CCC[C@H]1C(=O)N[C@@H](CO)C(N)=O)C(C)C [Compound 4]
- half-life ([1]; iv, single i.v. bolus, read-out: T½ terminal elimination half-life, i.v. (converted)): 8.7 h
- bioavailability [1]: 100%
- Tmax ([1]; sc, single s.c. bolus): 6 h
- half-life ([1]; sc, single s.c. bolus, read-out: T½ terminal elimination half-life, s.c. (converted)): 10.8 h
- EC50 (human GLP-1 R; [2]): 10 pM
- EC50 (human GIP R; [3]): 8.7 pM
- EC50 (human GIP R; [4]): 9 pM
- EC50 (human GIP R; [5]): 9 pM

SMILES: CC[C@H](C)[C@H](NC(=O)[C@H](CO)NC(=O)[C@H](Cc1ccc(O)cc1)NC(=O)[C@H](CC(=O)O)NC(=O)[C@H](CO)NC(=O)[C@@H](NC(=O)[C@H](Cc1ccccc1)NC(=O)[C@@H](NC(=O)CNC(=O)[C@H](CCC(=O)O)NC(=O)C(C)(C)NC(=O)[C@@H](N)Cc1ccc(O)cc1)[C@@H](C)O)[C@@H](C)O)C(=O)N[C@@H](Cc1ccc(O)cc1)C(=O)N[C@@H](CC(C)C)C(=O)N[C@@H](CC(=O)O)C(=O)N[C@@H](CCCCN)C(=O)N[C@@H](CCCCNC(=O)COCCOCCNC(=O)COCCOCCNC(=O)COCCOCCNC(=O)CC[C@H](NC(=O)CCCCCCCCCCCCCCCCCCC(=O)O)C(=O)O)C(=O)N[C@@H](C)C(=O)N[C@@H](CCC(N)=O)C(=O)N[C@@H](CCCNC(=N)N)C(=O)N[C@@H](C)C(=O)N[C@@H](Cc1ccccc1)C(=O)N[C@H](C(=O)N[C@@H](CCC(=O)O)C(=O)N[C@@H](Cc1c[nH]c2ccccc12)C(=O)N[C@@H](CC(C)C)C(=O)N[C@@H](CC(C)C)C(=O)N[C@@H](C)C(=O)N[C@@H](CCC(N)=O)C(=O)NCC(=O)N1CCC[C@H]1C(=O)N[C@@H](CO)C(=O)N[C@@H](CO)C(=O)NCC(=O)N[C@@H](C)C(=O)N1CCC[C@H]1C(=O)N1CCC[C@H]1C(=O)N1CCC[C@H]1C(=O)N[C@@H](CO)C(N)=O)C(C)C [Compound 8] (H-Y[Aib]EGTFTSDYSIYLDKK([AEEA-AEEA-AEEA-γGlu-C20 diacid])AQRAFVEWLLAQGPSSGAPPPS-NH2)
- half-life [1, 6]: 17.2 h
- bioavailability ([1]; male, C57BL/6J): 54%
- Tmax [1, 7]: 8 h
- EC50 (human GLP-1 R; [2]): 12 pM
- EC50 (human GLP-1 R; Table 2a, secondary assay study, read-out: hGLP1-R cAMP EC50 average value): 12 pM
- EC50 (human GIP R; [3]): 5.3 pM
- EC50 (human GIP R; [4]): 5 pM
- EC50 (human GIP R; [5]): 5 pM

SMILES: CC[C@H](C)[C@H](NC(=O)[C@H](CO)NC(=O)[C@H](Cc1ccc(O)cc1)NC(=O)[C@H](CC(=O)O)NC(=O)[C@H](CO)NC(=O)[C@@H](NC(=O)[C@H](Cc1ccccc1)NC(=O)[C@@H](NC(=O)CNC(=O)[C@H](CCC(=O)O)NC(=O)C(C)(C)NC(=O)[C@@H](N)Cc1ccc(O)cc1)[C@@H](C)O)[C@@H](C)O)C(=O)N[C@@H](C)C(=O)N[C@@H](CC(C)C)C(=O)N[C@@H](CC(=O)O)C(=O)N[C@@H](CCCCN)C(=O)N[C@@H](CCCCNC(=O)COCCOCCNC(=O)COCCOCCNC(=O)CC[C@H](NC(=O)CCCCCCCCCCCCCCCCCCC(=O)O)C(=O)O)C(=O)N[C@@H](C)C(=O)N[C@@H](CCC(N)=O)C(=O)N[C@@H](CCCNC(=N)N)C(=O)N[C@@H](C)C(=O)N[C@@H](Cc1ccccc1)C(=O)N[C@H](C(=O)N[C@@H](CC(N)=O)C(=O)N[C@@H](Cc1c[nH]c2ccccc12)C(=O)N[C@@H](CC(C)C)C(=O)N[C@H](C(=O)N[C@@H](C)C(=O)NC(C)(C)C(=O)N[C@@H](CCCCN)C(=O)N1CCC[C@H]1C(=O)N[C@@H](CO)C(=O)N[C@@H](CO)C(=O)NCC(=O)N[C@@H](C)C(=O)N1CCC[C@H]1C(=O)N1CCC[C@H]1C(=O)N1CCC[C@H]1C(=O)N[C@@H](CO)C(N)=O)C(C)C)C(C)C [Compound 15]
- half-life [1, 6]: 17.3 h
- bioavailability ([1]; male, C57BL/6J): 95%
- Tmax [1, 7]: 8 h
- EC50 (human GLP-1 R; [2]): 8.8 pM
- EC50 (human GLP-1 R; [8]): 9 pM
- EC50 (human GIP R; [3]): 8 pM
- EC50 (human GIP R; [5]): 8 pM

SMILES: CC[C@H](C)[C@H](NC(=O)[C@H](CO)NC(=O)[C@H](Cc1ccc(O)cc1)NC(=O)[C@H](CC(=O)O)NC(=O)[C@H](CO)NC(=O)[C@@H](NC(=O)[C@H](Cc1ccccc1)NC(=O)[C@@H](NC(=O)CNC(=O)[C@H](CCC(=O)O)NC(=O)C(C)(C)NC(=O)[C@@H](N)Cc1ccc(O)cc1)[C@@H](C)O)[C@@H](C)O)C(=O)N[C@@H](C)C(=O)N[C@@H](CC(C)C)C(=O)N[C@@H](CCC(=O)O)C(=O)N[C@@H](CCCCN)C(=O)N[C@@H](CCCCNC(=O)COCCOCCNC(=O)COCCOCCNC(=O)CC[C@H](NC(=O)CCCCCCCCCCCCCCCCC(=O)O)C(=O)O)C(=O)N[C@@H](C)C(=O)N[C@@H](CCC(N)=O)C(=O)N[C@@H](CCCNC(=N)N)C(=O)N[C@@H](C)C(=O)N[C@@H](Cc1ccccc1)C(=O)N[C@H](C(=O)N[C@@H](CCC(=O)O)C(=O)N[C@@H](Cc1c[nH]c2ccccc12)C(=O)N[C@@H](CC(C)C)C(=O)N[C@@H](CC(C)C)C(=O)N[C@@H](C)C(=O)N[C@@H](CCC(N)=O)C(=O)N[C@@H](CCCCN)C(N)=O)C(C)C [Compound 16] (H-Y[Aib]EGTFTSDYSIALEKK([AEEA-AEEA-γGlu-C18 diacid])AQRAFVEWLLAQK-NH2)
- half-life [1, 6]: 7.4 h
- bioavailability ([1]; male, C57BL/6J): 50%
- Tmax [1, 7]: 6 h
- EC50 (human GLP-1 R; [2]): 15 pM
- EC50 (human GIP R; [3]): 8.1 pM
- EC50 (human GIP R; [5]): 8 pM

SMILES: CC[C@H](C)[C@H](NC(=O)[C@H](CO)NC(=O)[C@H](CC(C)C)NC(=O)[C@H](CC(=O)O)NC(=O)[C@H](CO)NC(=O)[C@@H](NC(=O)[C@H](Cc1ccccc1)NC(=O)[C@@H](NC(=O)CNC(=O)[C@H](CCC(=O)O)NC(=O)C(C)(C)NC(=O)[C@@H](N)Cc1ccc(O)cc1)[C@@H](C)O)[C@@H](C)O)C(=O)N[C@@H](C)C(=O)N[C@@H](CC(C)C)C(=O)N[C@@H](CCC(=O)O)C(=O)N[C@@H](CCCCN)C(=O)N[C@@H](CCCCNC(=O)COCCOCCNC(=O)COCCOCCNC(=O)CC[C@H](NC(=O)CCCCCCCCCCCCCCCCCCC(=O)O)C(=O)O)C(=O)N[C@@H](C)C(=O)N[C@@H](CCC(N)=O)C(=O)N[C@@H](CCCNC(=N)N)C(=O)N[C@@H](C)C(=O)N[C@@H](Cc1ccccc1)C(=O)N[C@H](C(=O)N[C@@H](CCC(=O)O)C(=O)N[C@@H](Cc1c[nH]c2ccccc12)C(=O)N[C@@H](CC(C)C)C(=O)N[C@@H](CC(C)C)C(=O)N[C@@H](C)C(=O)N[C@@H](CCC(N)=O)C(=O)N[C@@H](CCCCN)C(N)=O)C(C)C [Compound 28] (H-Y[Aib]EGTFTSDLSIALEKK([AEEA-AEEA-γGlu-C20 diacid])AQRAFVEWLLAQK-NH2)
- half-life [1, 6]: 13.6 h
- bioavailability ([1]; male, C57BL/6J): 93%
- Tmax [1, 7]: 2 h
- half-life ([1]; male, C57BL/6J, sc, single s.c. bolus, read-out: T½ terminal elimination half-life, s.c. (converted)): 14.1 h
- EC50 (human GLP-1 R; [2]): 17 pM
- EC50 (human GLP-1 R; [8]): 15 pM
- EC50 (human GIP R; [3]): 24 pM
